This note sets out measurements from patent US12595438B2, “Biodegradable quaternary ammonium compound” (GALAXY SURFACTANTS LTD., priority 2021, dated 2026).

What all share (assay type): cell-based
In one experiment the test system is P. aeruginosa ATCC 9372. Briefly: MIC determination, test tube method. To be noted: tryptic soy broth, 37° C. for 24-48 hours. An excerpt: (§1) The Minimum Inhibitory concentration (MIC) is the lowest dilution which inhibits the growth of microorganism. MIC assays generate a value in μg/mL for the exact, lowest concentration of the antimicrobial agent that prevents the visible growth of bacteria. MIC was detected by using test tube method using different dilution in sterile tryptic soya broth (growth medium). (Ref.: https://www.ncbi.nlm.nih.gov/pmc/articles/PMC7470068/ this link describes about Test tube method of MIC)
(§2) • Working stock preparation: 1% in sterile D/W • Diluent: Sterile tryptic soy broth • Dilution range: 0.1% to 1%, further diluted to 100 ppm to 1000 ppm • Addition of culture: 0.1 mL of 18-24 hours old culture • Incubation temperature and time: • Bacteria: 37° C. for 24-48 hours • Y/M: 22.5° C. for 48-72 hours
(§3) The minimum inhibitory concentration (MIC) of Diamidoquat (DAQ), Benzalkonium chloride (BKC) and Esterquat (EQ) is shown in Table 1.
(§4) Antimicrobial efficacy of diamidoquat was studied as per MIC standard protocol.

Another experiment deals with Test Organism. Briefly: Overall MIC over all test organisms.
From the text: as §1, §2, §3, §4

For another experiment, the system named is S. aureus ATCC 6538. Description: MIC determination, test tube method. To be noted: tryptic soy broth, 37° C. for 24-48 hours.
From the text: as §1, §2, §4

A further experiment has as its system C. albicans ATCC 10231. Briefly: MIC determination, test tube method. To be noted: tryptic soy broth, 22.5° C. for 48-72 hours.
From the text: as §1, §2, §4

The test system of another experiment is A. niger ATCC 16404. Description: MIC determination, test tube method. To be noted: tryptic soy broth, 22.5° C. for 48-72 hours.
From the text: as §1, §2, §4

The subject of another experiment is E. coli ATCC 10142. Briefly: MIC determination, test tube method. To be noted: tryptic soy broth, 37° C. for 24-48 hours.
From the text: as §1, §2, §4

Turning to Benzalkonium chloride [BKC], the MIC in the experiment with P. aeruginosa ATCC 9372 was 0.7%; against S. aureus ATCC 6538, 0.6%; with C. albicans ATCC 10231 it was 0.7%; in the experiment on A. niger ATCC 16404, 0.7%; in the experiment on E. coli ATCC 10142, 0.7%. The “Overall MIC” value in the experiment on Test Organism was determined as 0.7%.
